Source: PMC9780942, “Antimicrobial Activity and Immunomodulatory Properties of Acidocin A, the Pediocin-like Bacteriocin with the Non-Canonical Structure” (Membranes, 2022)
Positions of bridges follow the written chain, without caps; N, C: chain ends. No end group written: not given here.

Experiments:
E. coli ML-35p = format: cell-based; details: 24 h
Experimental: (§1) Antibacterial activity of recombinant bacteriocins against a number of Gram-positive and Gram-negative bacteria (Table S2) was determined by the method of two-fold serial dilutions in a liquid medium. Two-fold serial dilutions of bacteriocins were prepared in sterile 96-well flat-bottom polystyrene microplates (Eppendorf, Hamburg, Germany) (Cat. No. 0030730.011) in a volume of 50 µL of sterile 0.1% bovine serum albumin (BSA) (SERVA Electrophoresis GmbH, Heidelberg, Germany) to prevent non-specific sorption of peptides to the surface of the plate wells [23]. Mid-log phase bacterial cultures were diluted with the 2x Mueller-Hinton broth (MHB) (Sigma-Aldrich, St. Louis, MO, USA) to a final cell concentration of 10^6 colony forming units (CFU) per mL. To determine the activity of bacteriocins against Listeria and Enterococci, 3% tryptic soy broth (TSB) (Merck-Millipore, Burlington, MA, USA) was used instead of MHB. Aliquots of 50 μL of diluted bacterial suspensions were added to each well of the plate, which was then incubated at 37 °C and 950 rpm for 24 h using thermostatable plate shaker PST-60HL-4 (Biosan, Riga, Latvia). As a negative control, 50 µL of the sterile growth medium (2xMHB or 6% TSB) was added to the wells containing 50 µL of 0.1% BSA. The values of the minimum inhibitory concentrations (MIC) were determined as the minimum concentration of the peptide, at which there was no visible growth of bacterial culture. Incubation for 2 h with 20 µg/mL chromogenic substrate resazurin (Sigma-Aldrich, St. Louis, MO, USA) was used to detect viable bacterial cells if they were difficult to visually detect. To study the effect of inorganic salts on the antimicrobial activity of bacteriocins, antibacterial activity assay was carried out in MHB medium supplemented with 0.9% NaCl.

E. coli ATCC 25922 = format: cell-based; details: ATCC 25922, 24 h
Experimental: as §1

B. subtilis B-886 = format: cell-based; details: B-886, 24 h
Experimental: as §1

B. licheniformis B-511 = format: cell-based; details: 24 h
Experimental: as §1

M. phlei Ac-1221 = format: cell-based; details: 24 h
Experimental: as §1

E. coli SQ110 = format: cell-based; details: SQ110, 24 h
Experimental: as §1

A. baumannii XDR CI 2675 = format: cell-based; details: XDR CI 2675, 24 h
Experimental: as §1

E. coli XDR CI 1057 = format: cell-based; details: XDR CI 1057, 24 h
Experimental: as §1

S. aureus 209P = format: cell-based; details: 24 h
Experimental: as §1

M. luteus Ac-2229 = format: cell-based; details: Ac-2229, 24 h
Experimental: as §1

[1] = test system: P. aeruginosa MDR CI 1995; format: cell-based; details: MDR CI 1995, 24 h
Experimental: as §1

L. lactis MK66 = format: cell-based; details: MK66, 24 h
Experimental: as §1

L. monocytogenes EGD = format: cell-based, Listeria monocytogenes; details: 24 h
Experimental: as §1

tested bacterial strains = assay: Antibacterial activity assay (MIC), average change over the tested strains; format: cell-based
Experimental: as §1, with “As a negative control, 50 µL of the sterile growth medium (2xMHB or 6% TSB) was added to the wells containing 50 µL of 0.1% BSA.” left out, “Incubation for 2 h with 20 µg/mL chromogenic substrate resazurin (Sigma-Aldrich, St. Louis, MO, USA) was used to detect viable bacterial cells if they were difficult to visually detect. To study the effect of inorganic salts on the antimicrobial activity of bacteriocins, antibacterial activity assay was carried out in MHB medium supplemented with 0.9% NaCl.” left out

L. lactis MK43 = assay: Antibacterial activity assay (MIC), two-fold serial dilutions in liquid medium; format: cell-based; details: for Minimum inhibitory concentration in the presence of NaCl: MHB supplemented with 0.9% NaCl; for Minimum Inhibitory Concentration: MHB, 0.1% BSA, 37 °C, 24 h, no visible growth
Experimental: as §1

[2] = test system: E. coli ML-35p outer membrane; assay: Outer membrane permeability assay with nitrocefin; format: cell-based; details: PBS pH 7.4 with NaCl, 35 °C, absorbance 492 nm, three independent experiments
Experimental: (§2) The ability of the peptides to disrupt the integrity of bacterial membranes was assessed using chromogenic substrates that are unable to enter the intact cell. For these assays, E. coli strain ML-35p was chosen that constitutively expresses β-lactamase (secreted into the periplasmic space), β-galactosidase (that is active in cytoplasm), and lacks lactose permease. Nitrocefin, which is a substrate for lactamase, served as an indicator of increased outer membrane permeability. o-Nitrophenyl-β-D-galactopyranoside (ONPG), a substrate for […], was used to assess the integrity of the cytoplasmic membrane. The bacterial cultures were grown to stationary phase in 3% TSB medium at 37 °C overnight. The cells were washed three times with cold 10 mM phosphate-buffered saline (PBS), pH 7.4 ([…], 2.7 mM KCl, 10 mM Na2HPO4, 1.76 mM KH2PO4), and diluted to the concentration of 3.3 × 10^7 CFU/mL with 10 mM PBS (pH 7.4), containing increased concentration of NaCl (1.2%, or 205 mM) and dissolved nitrocefin (Merck-Millipore, Burlington, MA, USA) or ONPG (AppliChem GmbH, Darmstadt, Germany). […] The plate was incubated at 35 °C, 500 rpm, and the absorbance of the hydrolysis products of ONPG or nitrocefin was measured spectrophotometrically at regular intervals at 405 nm or 492 nm, respectively, using AF2200 microplate reader (Eppendorf, Hamburg, Germany). […]

[3] = test system: E. coli ML-35p cytoplasmic membrane; assay: Cytoplasmic membrane permeability assay with ONPG; format: cell-based; details: PBS pH 7.4 with NaCl, 35 °C, absorbance 405 nm, three independent experiments
Experimental: as §2

| Sequence | Minimum Inhibitory Concentration (E. coli ML-35p) | Minimum inhibitory concentration in the presence of NaCl (E. coli ML-35p) | Minimum Inhibitory Concentration (E. coli ATCC 25922) | Minimum Inhibitory Concentration (B. subtilis B-886) | Minimum inhibitory concentration in the presence of NaCl (B. subtilis B-886) | Minimum Inhibitory Concentration (B. licheniformis B-511) | Minimum inhibitory concentration in the presence of NaCl (B. licheniformis B-511) | Minimum Inhibitory Concentration (M. phlei Ac-1221) | Minimum Inhibitory Concentration (E. coli SQ110) | Minimum inhibitory concentration in the presence of NaCl (E. coli SQ110) | Minimum Inhibitory Concentration (A. baumannii XDR CI 2675) | Minimum Inhibitory Concentration (E. coli XDR CI 1057) | Minimum Inhibitory Concentration (S. aureus 209P) | Minimum Inhibitory Concentration (M. luteus Ac-2229) | Minimum Inhibitory Concentration [1] | Minimum Inhibitory Concentration (L. lactis MK66) | Minimum inhibitory concentration in the presence of NaCl (L. lactis MK66) | Minimum Inhibitory Concentration (L. monocytogenes EGD) | Increase of MIC values on average compared to AcdA(dT) and acidocin A (tested bacterial strains) | Minimum Inhibitory Concentration (L. lactis MK43) | other results |
| --- | --- | --- | --- | --- | --- | --- | --- | --- | --- | --- | --- | --- | --- | --- | --- | --- | --- | --- | --- | --- | --- |
| KTYYGNGVHCTKKSLWGKVRLKNVIPGTLSRKQSLPIKQDLKILLGWATGAFGKTFH [AcdA(dT,C31S)] | 8 µM | 32 µM | 8 µM | 4 µM | > 32 µM | 4 µM | > 32 µM | 4 µM | 8 µM | 16 µM | 16 µM | 16 µM | 32 µM | 16 µM | >32 µM | 1 µM | > 32 µM | >32 µM | 2–4 fold | 2 µM | Minimum inhibitory concentration in the presence of NaCl (L. lactis MK43): > 32 µM |
| KTYYGNGVHSTKKSLWGKVRLKNVIPGTLCRKQSLPIKQDLKILLGWATGAFGKTFH [AcdA(dT,C11S)] | 4 µM | 32 µM | 8 µM | 4 µM | > 32 µM | 4 µM | > 32 µM | 4 µM | 4 µM | 16 µM | 8 µM | 16 µM | 32 µM | 16 µM | >32 µM | 1 µM | > 32 µM | >32 µM | 2–4 fold | 4 µM | Minimum inhibitory concentration in the presence of NaCl (L. lactis MK43): > 32 µM |
| KTYYGTNGVHCTKKSLWGKVRLKNVIPGTLCRKQSLPIKQDLKILLGWATGAFGKTFH (cysteines drawn unpaired) [AcdA (DTT reduced)] | 4 µM |  | 8 µM | 4 µM |  | 4 µM |  | 4 µM | 4 µM |  | 8 µM | 16 µM | 16 µM | 16 µM | >32 µM | 1 µM |  | >32 µM |  | 2 µM |  |
| KTYYGTNGVHCTKNSLWGKVRLKNVKYDQNTTYIGRLQDILLGWATGAFGKTFH [OR-7(VI)] | >32 µM |  | >32 µM | 16 µM | > 32 µM | 8 µM | > 32 µM | 32 µM | >64 µM |  | >32 µM | >64 µM | >32 µM | >32 µM | >32 µM | 4 µM | > 32 µM | >64 µM |  | >32 µM | Effect on outer membrane integrity (nitrocefin hydrolysis kinetics) [2]: reduced |
| TYYGTNGVSCNKKGCSVDWGKAISIIGNNSAANLATGGAAGWKS (disulfide 10-15) [AviA(T)] | >32 µM |  | >32 µM | >32 µM |  | >32 µM |  | >32 µM | >32 µM |  | >32 µM | >32 µM | >32 µM | >32 µM | >32 µM | >32 µM |  | >32 µM |  | >32 µM | Effect on cytoplasmic membrane integrity (ONPG hydrolysis kinetics) [3]: melittin >> acidocin A ≈ pediocin box mutants > peptides without a disulfide bond > avicin A >> AviA(T); Effect on outer membrane integrity (nitrocefin hydrolysis kinetics) [2]: with the exception of AviA(T), were able to disrupt its integrity |
